In US7056355B2, “Hair dye composition and dyeing method” (Kao Corporation, priority 2002, dated 2006):

Assay: pKa determination in DMF/water by titration with UV-visible spectra
Format: physicochemical
Settings: dye 2×10^−5 mol/l; for pKa: DMF/water (1/1 by volume) solution; for pka: DMF/water (1/1 by volume)
Description: The pKa value is determined in DMF/water (1/1-mixture, by volume) as follows:
The dye is dissolved in a solution of a DMF/water (1/1; volume ratio) to a final concentration of 2×10^−5 mol/l. After the resulting solution is adjusted to pH 2, using 1.0 mol/l hydrochloric acid, the solution is titrated with an aqueous 1.0 mol/l sodium hydroxide solution. Recording the change of the visible ultra-violet absorption spectrum, the inflection point is determined by regression analysis.

CS(=O)(=O)c1ccc(/N=N/c2ccc(O)c3ccccc23)c(C#N)c1 [Dye D-25]
pKa: 6.5

N#CC1=NN(c2ccccc2)C(=O)C1/N=N/c1ccc(S(N)(=O)=O)cc1 [Dye D-6]
pKa: 4.2

Cc1nn2nc(C(C)(C)C)c(/N=N/c3cc(Cl)c(S(N)(=O)=O)cc3Cl)c2[nH]1 [Dye D-17]
pKa: 5.92

N#CC(/N=N/c1ccc(S(N)(=O)=O)cc1)C(=O)c1ccccc1 [Dye D-14]
pKa: 5.82

NS(=O)(=O)c1cccc(S(=O)(=O)Nc2cccc3c(O)ccc(/N=N/c4ccc([N+](=O)[O-])cc4)c23)c1 [Dye D-22]
pka: 6.34

COc1ccc(/N=N/C2C(=O)N(c3ccc(S(N)(=O)=O)cc3)N=C2C#N)cc1 [Dye D-15]
pKa: 4.36

COc1ccc(/N=N/C2C(=O)N(c3ccccc3)N=C2C#N)cc1 [Dye D-7]
pKa: 4.6

CS(=O)(=O)Nc1cccc2c(O)ccc(/N=N/c3ccc([N+](=O)[O-])cc3S(C)(=O)=O)c12 [Dye D-21]
pka: 4.32

N#CC1=NN(c2ccccc2)C(=O)C1/N=N/c1cc(Cl)c(S(N)(=O)=O)cc1Cl [Dye D-18]
pka: 2.86

CCOC(=O)Nc1cc(/N=N/c2ccc(S(C)(=O)=O)cc2C#N)c2c(NS(C)(=O)=O)cccc2c1O [Dye D-24]
pka: 5.09

CC(=O)Nc1cc(/N=N/c2ccc(S(C)(=O)=O)cc2C#N)c2ccccc2c1O [Dye D-26]
pKa: 7.1
